Drawing on patent publication US20130261077A1 (priority 2012, published 2013), this text covers Kd for 24 compounds.

Each structure is given as a SMILES string.

T1 sequence (P08191 22-177): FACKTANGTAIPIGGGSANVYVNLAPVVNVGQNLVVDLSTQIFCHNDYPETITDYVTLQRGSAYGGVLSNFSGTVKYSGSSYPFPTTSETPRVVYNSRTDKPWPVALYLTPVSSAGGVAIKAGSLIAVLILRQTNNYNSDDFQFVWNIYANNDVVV

This experiment has as its target T1, FimH-CRD (Escherichia coli, UniProt P08191).
T1 construct: The first 177 amino acids of the FimH protein; thrombin tag (printed as 'fusion protein with thrombin') (cleaved yes); made in house; host or cells: bacteria (pET21b plasmid)
Briefly: Competitive binding assay by fluorescence polarization, assay 2 (compounds prepared by robotics, plates frozen and thawed). The method, then: The first 177 amino acids of the FimH protein were expressed as a fusion protein with thrombin in a pET21b plasmid in bacteria. This FimH protein sequence contains the carbohydrate recognition domain (CRD) and shall be termed FimH-CRD. Following bacterial expression of the protein, the FimH-CRD protein was purified to homogeneity and the thrombin tag removed by protease cleavage. A competitive binding assay by fluorescence polarization was performed using 5 nM of the Alexa 647 mannoside probe and 60 nM of the FimH-CRD. The samples are assayed in a low volume 384 well microtiter plate in a final volume of 20 μl. The final assay buffer conditions are the following, 50 mM Tris-Cl, ph 7.0, 100 mM NaCl, 1 mM EDTA, 5 mM β-mercaptoethanol, 0.05% BSA and 2.5% DMSO. Two assays are performed for FimH, termed assay 1 or assay 2. The assay conditions are the same for both assays except the following: assay 1 has compounds prepared by manual dilution in a serial dilution factor with 12-point dose response while assay 2 has compounds prepared by a robotics system also through a serial dilution factor (12 point dose response) and initially prepared in duplicate in 384 well-Corning polypropylene round bottom plates. The assay 2 plates have compound which is then frozen and must be thawed prior to use. Initially the Alexa 647 probe and the FimH-CRD are added to the assay buffer and then 0.5 μl of test compound (assay 1 or 2) between 0.4 nM to 75 μM final concentration are added (12 point titration with 3-fold serial dilution). Control wells for the Alexa 647 probe are prepared with the same conditions except for the addition of the FimH-CRD protein. Plates are then incubated for 5 hrs at room temperature in the dark and under humid conditions to prevent drying. Plates are read using the SpectraMax Paradigm multi-mode plate reader and the appropriate fluorescent polarization detection cartridge (Alexa-647).
Alexa 647 mannoside probe is prepared using the similar procedure reported for FAM mannoside (Han, Z. et. al., 2010, J. Med. Chem., 53, 4779) and is described in the scheme below.
To a blue colored stirred solution of (2S,3S,4S,5S,6R)-2-(4-aminobutoxy)-6-(hydroxymethyl)tetrahydropyran-3,4,5-triol (2.21 mg, 0.009 mmol) and the (2E)-2-[(2E,4E)-5-[3,3-dimethyl-5-sulfonato-1-(3-sulfonatopropyl)indol-1-ium-2-yl]penta-2,4-dienylidene]-3-[6-(2,5-dioxopyrrolidin-1-yl)oxy-6-oxo-hexyl]-3-methyl-1-(3-sulfonatopropyl)indoline-5-sulfonate (Potassium Ion (3)) (4.9 mg, 0.0044 mmol) in DMF (44 μL) is added Et3N (5.4 mg, 7.0 μL, 0.053 mmol) at RT. The solution is stirred at room temperature over night, concentrated, dissolved in water and purified on 12 g C-18 silica gel cartridge on Isolera system using acetonitrile in water (0 to 40%, 10 CV) and followed by lyophilization to afford Alexa 647 mannoside probe (3.3 mg, 34%) as deep blue solid.
The Kd values of the compounds are determined from dose response curves using twelve concentrations per compound in duplicate. Curves are fitted to data points using Fluorescence Polarization competitive displacement analysis, and Kds are interpolated from the resulting curves using GraphPad Prism software, version […] (GraphPad software Inc., San Diego, Calif., USA).
For orientation: Polarisation of emitted light reports the rotation of a fluorescent probe.
As to `CNC(=O)c1ccc(-c2cccc([C@H]3O[C@H](CO)[C@@H](O)[C@H](O)[C@@H]3O)c2)cc1-n1cncn1` [Compound 141, N-methyl-2-(1,2,4-triazol-1-yl)-4-[3-[(2R,3S,4R,5S,6R)-3,4,5-trihydroxy-6-(hydroxymethyl)tetrahydropyran-2-yl]phenyl]benzamide], the Kd (usually the concentration at which binding is half-saturated) amounted to 56.2 ± 20 nM.

Take `Cc1nnc(-c2ccc(-c3cccc([C@H]4O[C@H](CO)[C@@H](O)[C@H](O)[C@@H]4O)c3)c(C)c2)o1` [Compound 125, (2R,3S,4R,5S,6R)-2-(hydroxymethyl)-6-[3-[2-methyl-4-(5-methyl-1,3,4-oxadiazol-2-yl)phenyl]phenyl]tetrahydropyran-3,4,5-triol]: the Kd is 13.9 ± 2.6 nM.

Consider `OC[C@H]1O[C@H](c2ccc(-c3cn(Cc4ccccc4)nn3)cc2)[C@@H](O)[C@@H](O)[C@@H]1O` [Compound 81, (2R,3S,4R,5S,6R)-2-[4-(1-Benzyltriazol-4-yl)phenyl]-6-(hydroxymethyl)tetrahydropyran-3,4,5-triol], for which the Kd came out at 15.2 ± 4.3 nM.

With `OCc1nc2cc(-c3cccc([C@H]4O[C@H](CO)[C@@H](O)[C@H](O)[C@@H]4O)c3)ccc2[nH]1` [Compound 146, (2R,3S,4R,5S,6R)-2-(Hydroxymethyl)-6-[3-[2-(hydroxymethyl)-1H-benzimidazol-5-yl]phenyl]tetrahydropyran-3,4,5-triol], the affinity, expressed as Kd, was 27.8 ± 10.8 nM.

On to `COC(=O)c1ccc(C#Cc2ccc([C@H]3O[C@H](CO)[C@@H](O)[C@H](O)[C@@H]3O)cc2)cc1` [Compound 89, Methyl 4-[2-[4-[(2R,3S,4R,5S,6R)-3,4,5-trihydroxy-6-(hydroxymethyl)tetrahydropyran-2-yl]phenyl]ethynyl]benzoate], for which the Kd was determined as 14.5 ± 2.2 nM. With `Cc1c(-c2ccc(-c3ccn(C)n3)cc2)cccc1[C@H]1O[C@H](CO)[C@@H](O)[C@H](O)[C@@H]1O` [Compound 108, (2R,3S,4R,5S,6R)-2-(Hydroxymethyl)-6-[2-methyl-3-[4-(1-methylpyrazol-3-yl)phenyl]phenyl]tetrahydropyran-3,4,5-triol], the affinity, expressed as Kd, was 7.9 ± 2.9 nM. For the compound `OC[C@H]1OC(c2cccc(OCCCCC(F)(F)F)c2)[C@@H](O)[C@@H](O)[C@@H]1O` (stereo partly drawn) [Compound 209], the affinity, expressed as Kd, was 12.5 ± 5.3 nM. To `CNC(=O)Cc1nnc(-c2ccc(-c3cccc([C@H]4O[C@H](CO)[C@@H](O)[C@H](O)[C@@H]4O)c3)cc2)o1` [Compound 181, N-methyl-2-(5-(3′-((2R,3S,4R,5S,6R)-3,4,5-trihydroxy-6-(hydroxymethyl)tetrahydro-2H-pyran-2-yl)-[1,1′-biphenyl]-4-yl)-1,3,4-oxadiazol-2-yl)acetamide] belongs 21.7 ± 4.2 nM; to `OC[C@H]1O[C@H](c2cccc(-c3ccc4[nH]c(O)nc4c3)c2)[C@@H](O)[C@@H](O)[C@@H]1O` [Compound 147, (2R,3S,4R,5S,6R)-2-[3-(2-Hydroxy-1H-benzimidazol-5-yl)phenyl]-6-(hydroxymethyl)tetrahydropyran-3,4,5-triol], 10.9 ± 4 nM. Next, `OC[C@H]1O[C@H](c2cc(O)ccc2F)[C@@H](O)[C@@H](O)[C@@H]1O` [Compound 192, (2R,3S,4R,5S,6R)-2-(2-fluoro-5-hydroxy-phenyl)-6-(hydroxymethyl)tetrahydropyran-3,4,5-triol]: 56.5 ± 9.1 nM. Next, `CNC(=O)c1ccc(OCc2cccc([C@H]3O[C@H](CO)[C@@H](O)[C@H](O)[C@@H]3O)c2)cc1` [Compound 264, N-methyl-4-[[3-[(2R,3S,4R,5S,6R)-3,4,5-trihydroxy-6-(hydroxymethyl)tetrahydropyran-2-yl]phenyl]methoxy]benzamide]: 30.8 ± 9.1 nM; `Cc1nnc(-c2ccc3cc(-c4cccc([C@H]5O[C@H](CO)[C@@H](O)[C@H](O)[C@@H]5O)c4)ccc3c2)o1` [Compound 161, (2R,3S,4R,5S,6R)-2-(hydroxymethyl)-6-[3-[6-(5-methyl-1,3,4-oxadiazol-2-yl)-2-naphthyl]phenyl]tetrahydropyran-3,4,5-triol]: 6.6 ± 1.2 nM; `OC[C@H]1O[C@H](c2cccc(Oc3ccncc3)c2)[C@@H](O)[C@@H](O)[C@@H]1O` [Compound 252, (2R,3S,4R,5S,6R)-2-(hydroxymethyl)-6-[3-(4-pyridyloxy)phenyl]tetrahydropyran-3,4,5-triol]: 13.2 ± 2.2 nM. In the case of `COC(=O)c1nc2cc(-c3cccc([C@H]4O[C@H](CO)[C@@H](O)[C@H](O)[C@@H]4O)c3)ccc2[nH]1` [Compound 151, Methyl 5-[3-[(2R,3S,4R,5S,6R)-3,4,5-trihydroxy-6-(hydroxymethyl)tetrahydropyran-2-yl]phenyl]-1H-benzimidazole-2-carboxylate], binding was characterised by a dissociation constant (Kd) of 37.8 ± 13.4 nM. This Kd is about 2.9-fold higher than that of the compound before. Next, `OC[C@H]1OC(c2ccc(OCc3ccccc3)cc2)[C@@H](O)[C@@H](O)[C@@H]1O` (stereo partly drawn) [Compound 245]: 22.8 ± 2.4 nM. To `OC[C@H]1O[C@H](c2ccc(Oc3ccccc3)cc2)[C@@H](O)[C@@H](O)[C@@H]1O` [Compound 205, (2R,3S,4R,5S,6R)-2-(hydroxymethyl)-6-(4-phenoxyphenyl)tetrahydropyran-3,4,5-triol] belongs 38.7 ± 16.2 nM. With `Cc1ccc(-c2nnc(-c3ccc(-c4cccc([C@H]5O[C@H](CO)[C@@H](O)[C@H](O)[C@@H]5O)c4)cc3)o2)o1` [Compound 121, (2R,3S,4R,5S,6R)-2-(hydroxymethyl)-6-[3-[4-[5-(5-methyl-2-furyl)-1,3,4-oxadiazol-2-yl]phenyl]phenyl]tetrahydropyran-3,4,5-triol], the Kd was determined as 13.1 ± 0.9 nM.

`COC(=O)c1cc(C#Cc2cc([C@H]3O[C@H](CO)[C@@H](O)[C@H](O)[C@@H]3O)ccc2OC)cc(C(=O)OC)c1` [Compound 82, Dimethyl 5-[2-[2-methoxy-5-[(2R,3S,4R,5S,6R)-3,4,5-trihydroxy-6-(hydroxymethyl)tetrahydropyran-2-yl]phenyl]ethynyl]benzene-1,3-dicarboxylate] displayed a Kd of 23.2 ± 15.1 nM.

Compound `N#Cc1ccc2[nH]c(-c3cccc([C@H]4O[C@H](CO)[C@@H](O)[C@H](O)[C@@H]4O)c3)nc2c1` [Compound 167] displayed a Kd of 32.1 ± 4.3 nM. To `O=C(O)c1cccc(COc2ccc(C3O[C@H](CO)[C@@H](O)[C@H](O)[C@@H]3O)cc2)c1` (stereo partly drawn) [Compound 247] belongs 32 ± 5.1 nM; to `Nc1ccc(Oc2cccc([C@H]3O[C@H](CO)[C@@H](O)[C@H](O)[C@@H]3O)c2)cn1` [Compound 258, (2R,3S,4R,5S,6R)-2-[3-[(6-amino-3-pyridyl)oxy]phenyl]-6-(hydroxymethyl)tetrahydropyran-3,4,5-triol], 31.9 ± 6.3 nM; to `Cn1cnc2cc(-c3cccc([C@H]4O[C@H](CO)[C@@H](O)[C@H](O)[C@@H]4O)c3)ccc21` [Compound 179, (2R,3S,4R,5S,6R)-2-(hydroxymethyl)-6-(3-(1-methyl-1H-benzo[d]imidazol-5-yl)phenyl)tetrahydro-2H-pyran-3,4,5-triol], 20.4 ± 0.8 nM.

On to `CNC(=O)Cn1cnc2cc(-c3cccc([C@H]4O[C@H](CO)[C@@H](O)[C@H](O)[C@@H]4O)c3)ccc21` [Compound 152, N-Methyl-2-[5-[3-[(2R,3S,4R,5S,6R)-3,4,5-trihydroxy-6-(hydroxymethyl)tetrahydropyran-2-yl]phenyl]benzimidazol-1-yl]acetamide], for which the Kd stood at 43.8 ± 1.1 nM.

`OC[C@H]1O[C@H](c2cccc(CCc3ccccc3)c2)[C@@H](O)[C@@H](O)[C@@H]1O` [Compound 102, (2R,3S,4R,5S,6R)-2-(Hydroxymethyl)-6-[3-(2-phenylethyl)phenyl]tetrahydropyran-3,4,5-triol]: the dissociation constant Kd turned out to be 22 ± 3.4 nM.
